These compounds were tested against T1, glutaminase (GAC) (Homo sapiens, UniProt O94925) (assay: Glutaminase (GAC) coupled endpoint enzymatic assay (glutamate dehydrogenase/diaphorase/resazurin, Ex544/Em590)). Conditions: inhibition of glutaminase, tested in an assay of Example A or Example B; class symbols A-E.
T1 sequence (O94925 55-598 isoform O94925-3 limits assumed): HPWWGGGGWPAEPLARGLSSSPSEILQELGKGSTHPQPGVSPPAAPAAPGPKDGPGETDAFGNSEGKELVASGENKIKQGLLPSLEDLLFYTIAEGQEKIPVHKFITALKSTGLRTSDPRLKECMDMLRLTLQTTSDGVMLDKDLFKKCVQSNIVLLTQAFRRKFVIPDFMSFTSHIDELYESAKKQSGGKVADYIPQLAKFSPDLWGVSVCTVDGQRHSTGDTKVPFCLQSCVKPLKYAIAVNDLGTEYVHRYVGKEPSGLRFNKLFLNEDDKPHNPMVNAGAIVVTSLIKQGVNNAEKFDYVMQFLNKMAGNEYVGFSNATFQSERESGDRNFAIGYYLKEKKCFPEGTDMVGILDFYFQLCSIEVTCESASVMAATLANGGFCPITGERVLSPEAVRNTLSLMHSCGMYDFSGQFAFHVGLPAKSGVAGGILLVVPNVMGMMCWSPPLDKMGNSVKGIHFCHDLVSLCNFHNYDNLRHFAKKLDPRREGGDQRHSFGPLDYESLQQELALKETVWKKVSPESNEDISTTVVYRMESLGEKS
Type: biochemical
How it was run: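 Compound preincubated 60 min at room temperature with 0.875 μg/ml GAC, 1.56 mM NAD and 6.25 U/ml GDH in HEPES/phosphate buffer pH 8.5; substrate mix then added, giving glutamine at Km. Coupled GDH/diaphorase converts resazurin to resorufin; reaction stopped with SDS and fluorescence read at Ex544/Em590.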

IC50, 0.1 to 0.5 µM:
CCCC(=O)Nc1nnc([C@H]2CCC[C@H](c3nnc(NC(=O)CCC)s3)C2)s1 [Compound 37, N,N′-(5,5′-((1S,3S)-cyclohexane-1,3-diyl)bis(1,3,4-thiadiazole-5,2-diyl))dibutyramide]
CC(=O)Nc1nnc([C@H]2CCC[C@H](c3nnc(NC(C)=O)s3)C2)s1 (single isomer, unassigned) [Compound 99]
CCC(=O)Nc1nnc([C@H]2CCC[C@H](c3nnc(NC(=O)CC)s3)C2)s1 [Compound 40, N,N′-(5,5′-((1S,3S)-cyclohexane-1,3-diyl)bis(1,3,4-thiadiazole-5,2-diyl))dipropionamide]
COc1cc(CC(=O)Nc2nnc([C@H]3CCC[C@H](c4nnc(NC(=O)Cc5ccc(F)c(OC)c5)s4)C3)s2)ccc1F [Compound 78, N,N′-(5,5′-((1S,3S)-cyclohexane-1,3-diyl)bis(1,3,4-thiadiazole-5,2-diyl))bis(2-(4-fluoro-3-methoxyphenyl)acetamide)]

IC50, 1 to 2 µM:
O=C(Cc1ccccn1)Nc1nnc([C@@H]2CCC[C@@H](c3nnc(NC(=O)Cc4ccccn4)s3)C2)s1 [Compound 17, N,N′-(5,5′-((1R,3R)-cyclohexane-1,3-diyl)bis(1,3,4-thiadiazole-5,2-diyl))bis(2-(pyridin-2-yl)acetamide)]
O=C(CCC(F)(F)F)Nc1nnc([C@H]2CCC[C@H](c3nnc(NC(=O)CCC(F)(F)F)s3)C2)s1 [Compound 47, N,N′-(5,5′-((1S,3S)-cyclohexane-1,3-diyl)bis(1,3,4-thiadiazole-5,2-diyl))bis(4,4,4-trifluorobutanamide)]
O=C(CC1CCCO1)Nc1nnc([C@H]2CCC[C@H](c3nnc(NC(=O)CC4CCCO4)s3)C2)s1 (stereo partly drawn) [Compound 77, N,N′-(5,5′-((1S,3S)-cyclohexane-1,3-diyl)bis(1,3,4-thiadiazole-5,2-diyl))bis(2-(tetrahydrofuran-2-yl)acetamide)]
O=C(Nc1nnc([C@H]2CCC[C@H](c3nnc(NC(=O)c4ccccc4)s3)C2)s1)c1ccccc1 [Compound 39, N,N′-(5,5′-((1S,3S)-cyclohexane-1,3-diyl)bis(1,3,4-thiadiazole-5,2-diyl))dibenzamide]

IC50, 0.5 to 1 µM:
O=C(Cc1ccccn1)Nc1nnc(CC2CCC(Cc3nnc(NC(=O)Cc4ccccn4)s3)CC2)s1 [Compound 2, N,N′-(5,5′-((1R,4R)-cyclohexane-1,4-diylbis(methylene)bis(1,3,4-thiadiazole-5,2-diyl))bis(2-(pyridin-2-yl)acetamide)]

IC50, < 0.1 µM:
CC(=O)Nc1cccc(CC(=O)Nc2nnc([C@H]3CCC[C@H](c4nnc(NC(=O)Cc5cccc(NC(C)=O)c5)s4)C3)s2)c1 [Compound 65, N,N′-(5,5′-((1S,3S)-cyclohexane-1,3-diyl)bis(1,3,4-thiadiazole-5,2-diyl))bis(2-(3-acetamidophenyl)acetamide)]
CN(C)c1cccc(CC(=O)Nc2nnc([C@H]3CCC[C@H](c4nnc(NC(=O)Cc5cccc(N(C)C)c5)s4)C3)s2)c1 [Compound 35, N,N′-(5,5′-((1S,3S)-cyclohexane-1,3-diyl)bis(1,3,4-thiadiazole-5,2-diyl))bis(2-(3-(dimethylamino)phenyl)acetamide)]
O=C(Cc1cccc(OC(F)(F)F)c1)Nc1nnc([C@H]2CCC[C@H](c3nnc(NC(=O)Cc4ccccn4)s3)C2)s1 [Compound 364, 2-(pyridin-2-yl)-N-(5-((1S,3S)-3-(5-(2-(3-(trifluoromethoxy)phenyl)acetamido)-1,3,4-thiadiazol-2-yl)cyclohexyl)-1,3,4-thiadiazol-2-yl)acetamide]
O=C(Cc1ccccn1)Nc1nnc([C@H]2CCC[C@H](c3nnc(NC(=O)Cc4ccccn4)s3)C2)s1 (single isomer, unassigned) [Compound 14]
O=C(Cc1cccc(N2CC(F)(F)C2)n1)Nc1nnc([C@H]2CCC[C@H](c3nnc(NC(=O)[C@H](O)c4ccccc4)s3)C2)s1 [Compound 369]
O=C(Cc1ccc(N2CC(F)C2)cn1)Nc1nnc([C@H]2CC[C@H](c3nnc(NC(=O)Cc4ccc(N5CC(F)C5)cn4)s3)C2)s1 [Compound 363]
O=C(Nc1nnc([C@H]2CC[C@H](c3nnc(NC(=O)[C@H](O)c4ccccc4)s3)C2)s1)[C@H](O)c1ccccc1 [Compound 382]
O=C(Cc1cccc(OC(F)(F)F)c1)Nc1nnc([C@H]2CC[C@H](c3nnc(NC(=O)Cc4cccc(N5CC(F)(F)C5)n4)s3)C2)s1 [Compound 373]
CS(=O)(=O)c1cccc(CC(=O)Nc2nnc([C@H]3CCC[C@H](c4nnc(NC(=O)Cc5cccc(S(C)(=O)=O)c5)s4)C3)s2)c1 [Compound 54, N,N′-(5,5′-((1S,3S)-cyclohexane-1,3-diyl)bis(1,3,4-thiadiazole-5,2-diyl))bis(2-(3-(methylsulfonyl)phenyl)acetamide)]
COc1ccccc1CC(=O)Nc1nnc([C@H]2CCC[C@H](c3nnc(NC(=O)Cc4ccccc4OC)s3)C2)s1 (single isomer, unassigned) [Compound 70]
O=C(Nc1nnc([C@H]2CCC[C@H](c3nnc(NC(=O)C(CO)c4ccccc4)s3)C2)s1)C(CO)c1ccccc1 (stereo partly drawn) [Compound 380, N,N′-(5,5′-((1S,3S)-cyclohexane-1,3-diyl)bis(1,3,4-thiadiazole-5,2-diyl))bis(3-hydroxy-2-phenylpropanamide)]
COc1ccc(CC(=O)Nc2nnc([C@H]3CC[C@H](c4nnc(NC(=O)Cc5cccc(N6CC(F)(F)C6)n5)s4)C3)s2)cn1 [Compound 358]
O=C(Cc1ccc(N2CC(F)C2)cn1)Nc1nnc([C@H]2CCC[C@H](c3nnc(NC(=O)Cc4ccc(N5CC(F)C5)cn4)s3)C2)s1 [Compound 357]
CC(=O)Nc1ccc(CC(=O)Nc2nnc([C@H]3CCC[C@H](c4nnc(NC(=O)Cc5ccc(NC(C)=O)cc5)s4)C3)s2)cc1 (single isomer, unassigned) [Compound 106]
O=C(Cc1ccncc1)Nc1nnc([C@H]2CCC[C@H](c3nnc(NC(=O)Cc4ccncc4)s3)C2)s1 [Compound 29, N,N′-(5,5′-((1S,3S)-cyclohexane-1,3-diyl)bis(1,3,4-thiadiazole-5,2-diyl))bis(2-(pyridin-4-yl)acetamide)]

From patent publication US10087172B2, “Compounds and their methods of use” (AGIOS PHARMACEUTICALS, INC, priority 2012, dated 2018)
